Assays:
MATIN [1] = assay: Herbicidal post-emergence action 1b (twin sowing, 1280 g/ha); format: in vivo, Matricaria inodora; conditions: dosage 1280 g/ha, visual rating about 3 weeks after treatment
Method: (§1) [table] b) Seeds of mono- and dicotyledonous weed plants are placed in plastic pots in sandy loam soil (twin sowing with one species each of mono- or dicotyledonous weed plants per pot), covered with soil and cultivated in a greenhouse under controlled growth conditions. 2 to 3 weeks after sowing, the test plants are treated at the one-leaf stage. The compounds of the invention, formulated in the form of wettable powders (WP) or as emulsion concentrates (EC), are applied to the green parts of the plants as aqueous suspension or emulsion with addition of 0.5% additive at a water application rate equivalent to 600 litres per hectare. After the test plants have been kept in the greenhouse under optimum growth conditions for about 3 weeks, the activity of the preparations is rated visually in comparison to untreated controls. For example, 100% activity=the plants have died, 0% activity=like control plants. Tables A16 to A21 below show the effects of selected compounds of the general formula (I) according to Tables 1 and 2 on various harmful plants and at an application rate corresponding to 1280 g/ha, which were obtained by the experimental procedure mentioned above.

STEME [2] = assay: Herbicidal pre-emergence action 2b (doubly sown, 1280 g/ha); format: in vivo, Stellaria media; conditions: doubly sown pots, dosage 1280 g/ha, visual scoring after about 3 weeks
Description: (§2) [table] b) Seeds of mono- and dicotyledonous weed plants are placed in plastic pots in sandy loam soil (doubly sown with one species each of mono- or dicotyledonous weed plants per pot) and covered with soil. The compounds of the invention, formulated in the form of wettable powders (WP) or as emulsion concentrates (EC), are then applied onto the surface of the covering soil as aqueous suspension or emulsion with addition of 0.5% additive at a water application rate equivalent to 600 litres per hectare. After the treatment, the pots are placed in a greenhouse and kept under good growth conditions for the trial plants. After about 3 weeks, the effect of the preparations is scored visually in comparison with untreated controls as percentages. For example, 100% activity=the plants have died, 0% activity=like control plants. Tables B16 to B21 below show the effects of selected compounds of the general formula (I) according to Tables 1 and 2 on various harmful plants and at an application rate corresponding to 1280 g/ha, which were obtained by the experimental procedure mentioned above.

POAAN [3] = assay: Herbicidal post-emergence action 1b (twin sowing, 1280 g/ha); format: in vivo, Poa annua; conditions: dosage 1280 g/ha, visual rating about 3 weeks after treatment
Method: as §1

POAAN [4] = assay: Herbicidal pre-emergence action 2b (doubly sown, 1280 g/ha); format: in vivo, Poa annua; conditions: doubly sown pots, dosage 1280 g/ha, visual scoring after about 3 weeks
Description: as §2

MATIN [5] = assay: as above; format: in vivo, Matricaria inodora; conditions: doubly sown pots, dosage 1280 g/ha, visual scoring after about 3 weeks
Description: as §2

DIGSA = assay: as above; format: in vivo, Digitaria sanguinalis; conditions: doubly sown pots, dosage 1280 g/ha, visual scoring after about 3 weeks
Description: as §2

AMARE [6] = assay: as above; format: in vivo, Amaranthus retroflexus; conditions: doubly sown pots, dosage 1280 g/ha, visual scoring after about 3 weeks
Description: as §2

STEME [7] = assay: Herbicidal post-emergence action 1b (twin sowing, 1280 g/ha); format: in vivo, Stellaria media; conditions: dosage 1280 g/ha, visual rating about 3 weeks after treatment
Method: as §1

SETVI [8] = assay: Herbicidal post-emergence action 1a (greenhouse pots, visual rating); format: in vivo, Setaria viridis; conditions: rated visually about 3 weeks after treatment, 100% = plants have died, 0% = like control plants
Method: (§3) [table] a) Seeds of monocotyledonous and dicotyledonous weeds and crop plants are placed in sandy loam in plastic or organic plant pots, covered with soil and cultivated in a greenhouse under controlled growth conditions. 2 to 3 weeks after sowing, the test plants are treated at the one-leaf stage. The compounds of the invention, formulated in the form of wettable powders (WP) or as emulsion concentrates (EC), are then sprayed onto the green parts of the plants as aqueous suspension or emulsion with addition of 0.5% additive at a water application rate of 600 1/ha (converted). After the test plants have been kept in the greenhouse under optimum growth conditions for about 3 weeks, the activity of the preparations is rated visually in comparison to untreated controls. For example, 100% activity=the plants have died, 0% activity=like control plants. Tables A1 to A15 below show the effects of selected compounds of the general formula (I) according to Tables 1 and 2 on various harmful plants and an application rate corresponding to 320 g/ha and/or 80 g/ha, which were obtained by the experimental procedure mentioned above.

ALOMY [9] = assay: as above; format: in vivo, Alopecurus myosuroides; conditions: rated visually about 3 weeks after treatment, 100% = plants have died, 0% = like control plants
Method: as §3

LOLRI [10] = assay: Herbicidal pre-emergence action 2a (greenhouse pots, visual scoring); format: in vivo, Lolium rigidum; conditions: dosage 320 g/ha, visual scoring after about 3 weeks vs untreated controls
Description: (§4) [table] a) Seeds of monocotyledonous and dicotyledonous weed plants and crop plants are placed in plastic or organic plant pots and covered with soil. The compounds of the invention, formulated in the form of wettable powders (WP) or as emulsion concentrates (EC), are then applied onto the surface of the covering soil as aqueous suspension or emulsion with addition of 0.5% additive at a water application rate of 600 1/ha (converted). After the treatment, the pots are placed in a greenhouse and kept under good growth conditions for the trial plants. After about 3 weeks, the effect of the preparations is scored visually in comparison with untreated controls as percentages. For example, 100% activity=the plants have died, 0% activity=like control plants. Tables B1 to B15 below show the effects of selected compounds of the general formula (I) according to Tables 1 and 2 on various harmful plants and an application rate corresponding to 320 g/ha and/or 80 g/ha, which were obtained by the experimental procedure mentioned above.

VERPE [11] = assay: as above; format: in vivo, Veronica persica; conditions: dosage 320 g/ha, visual scoring after about 3 weeks vs untreated controls
Description: as §4

AVEFA [12] = assay: as above; format: in vivo, Avena fatua; conditions: dosage 320 g/ha, visual scoring after about 3 weeks
Description: as §4

AVEFA [13] = assay: Herbicidal post-emergence action 1a (greenhouse pots, visual rating); format: in vivo, Avena fatua; conditions: Dosage 320 g/ha; rated visually about 3 weeks after treatment; 100% = plants have died, 0% = like control plants
Method: as §3

POLCO [14] = assay: as above; format: in vivo, Polygonum convolvulus; conditions: dosage 320 g/ha, visual rating about 3 weeks after treatment
Method: as §3

AMARE [15] = assay: as above; format: in vivo, Amaranthus retroflexus; conditions: dosage 320 g/ha, visual rating about 3 weeks after treatment
Method: as §3

ALOMY [16] = assay: Herbicidal pre-emergence action 2a (greenhouse pots, visual scoring); format: in vivo, Alopecurus myosuroides; conditions: dosage 320 g/ha, visual scoring after about 3 weeks
Description: as §4

AMARE [17] = assay: as above; format: in vivo, Amaranthus retroflexus; conditions: dosage 320 g/ha, visual scoring after about 3 weeks vs untreated controls
Description: as §4

SETVI [18] = assay: as above; format: in vivo, Setaria viridis; conditions: dosage 320 g/ha, visual scoring after about 3 weeks vs untreated controls
Description: as §4

ECHCG = assay: Herbicidal post-emergence action 1a (greenhouse pots, visual rating); format: in vivo, Echinochloa crus-galli; conditions: Dosage 320 g/ha; rated visually about 3 weeks after treatment; 100% = plants have died, 0% = like control plants
Method: as §3

POLCO [19] = assay: Herbicidal pre-emergence action 2a (greenhouse pots, visual scoring); format: in vivo, Polygonum convolvulus; conditions: dosage 320 g/ha, visual scoring after about 3 weeks vs untreated controls
Description: as §4

MATIN [20] = assay: Herbicidal post-emergence action 1a (greenhouse pots, visual rating); format: in vivo, Matricaria inodora; conditions: dosage 320 g/ha, visual rating about 3 weeks after treatment
Method: as §3

VERPE [21] = assay: as above; format: in vivo, Veronica persica; conditions: dosage 320 g/ha, visual rating about 3 weeks after treatment
Method: as §3

LOLRI [22] = assay: as above; format: in vivo, Lolium rigidum; conditions: Dosage 320 g/ha; rated visually about 3 weeks after treatment; 100% = plants have died, 0% = like control plants
Method: as §3

Structure (SMILES)	Post-emergence action against ALOMY in % (ALOMY [9]; Dosage 80 g/ha) [%]	Post-emergence action against ALOMY in % (ALOMY [9]; Dosage 320 g/ha) [%]	Pre-emergence action against LOLRI in % (LOLRI [10]) [%]	Pre-emergence action against VERPE in % (VERPE [11]) [%]	Pre-emergence action against AVEFA in % (AVEFA [12]) [%]	Post-emergence action against AVEFA in % (AVEFA [13]) [%]	Post-emergence action against POLCO in % (POLCO [14]) [%]	Post-emergence action against AMARE in % (AMARE [15]) [%]	Pre-emergence action against ALOMY in % (ALOMY [16]) [%]	Pre-emergence action against SETVI in % (SETVI [18]) [%]	Pre-emergence action against POLCO in % (POLCO [19]) [%]	other results
COC(=O)[C@@H](C)Oc1nn(-c2cnccn2)c(-c2cnc(F)c(F)c2)c1Br [Example I-43]	–	–	–	–	–	–	–	–	–	–	–	Post-emergence action at 1280 g/ha against MATIN in % (MATIN [1]): 100%; Pre-emergence action at 1280 g/ha against STEME in % (STEME [2]): 100%; Post-emergence action at 1280 g/ha against POAAN in % (POAAN [3]): 100%; Pre-emergence action at 1280 g/ha against POAAN in % (POAAN [4]): 100%; Pre-emergence action at 1280 g/ha against MATIN in % (MATIN [5]): 90%; Pre-emergence action at 1280 g/ha against DIGSA in % (DIGSA): 100%; Pre-emergence action at 1280 g/ha against AMARE in % (AMARE [6]): 100%; Post-emergence action at 1280 g/ha against STEME in % (STEME [7]): 90%
COC(=O)CNC(=O)[C@@H](C)Oc1nn(-c2cnccn2)c(-c2ccc(F)nc2)c1Br [II-03]	80	90	100	100	100	90	80	90	100	100	90	Post-emergence action against SETVI in % (SETVI [8]; Dosage 80 g/ha): 90%; Post-emergence action against SETVI in % (SETVI [8]; Dosage 320 g/ha): 90%; Pre-emergence action against AMARE in % (AMARE [17]): 100%; Post-emergence action against ECHCG in % (ECHCG): 80%
O=C(O)COc1nn(-c2cnccn2)c(-c2ccc(F)nc2)c1C1CC1 [Example I-83]	80	80	–	–	–	–	–	–	–	–	–	Post-emergence action against MATIN in % (MATIN [20]): 80%
CCOC(=O)[C@@H](C)Oc1nn(-c2cnccn2)c(-c2ccc(F)nc2)c1C1CC1 [Example I-88]	80	100	100	90	90	100	80	80	100	80	80	Post-emergence action against VERPE in % (VERPE [21]): 80%; Post-emergence action against LOLRI in % (LOLRI [22]): 100%
